According to patent publication US20230048170A1, “COMPOSITION INCLUDING CATIONIC POLYSACCHARIDE AND ANIONIC ANTIOXIDANT” (priority 2019, published 2023):

Assay: Solubilisation of baicalin in alkaline water with or without polyquaternium-67
Type: physicochemical
Conditions: pH 10
Description: In Examples 1-3, a polyquaternium-67 (PQ-67) was dissolved in water to prepare a PQ-67 aqueous solution. Then, the pH of the solution was adjusted to 10 by adding 1M NaOH aqueous solution. Next, baicalin was added to the alkaline solution as much as possible. In the compositions according to Examples 1-3, […] was able to be solubilized up to an amount of 0.1% by weight, 0.2% by weight and 0.25% by weight, respectively, relative to the total weight of the composition.
On the other hand, in the composition according to Comparative Example 1 including no PQ-67, the solubilized amount of […] was limited only to 0.025% by weight relative to the total weight of the composition.
Thus, by forming a complex by the electrostatic interaction, the solubility of baicalin increased up to 10 folds.

## O=C(O)[C@H]1O[C@@H](Oc2cc3oc(-c4ccccc4)cc(=O)c3c(O)c2O)[C@H](O)[C@@H](O)[C@@H]1O [baicalin]
  increase of solubility of baicalin by complex formation with PQ-67: up to 10 folds
